Data as given in US20230087941A1, “COMBINATIONS” (Recurium IP Holdings, LLC, priority 2019, published 2023).

Legend:
[1] = test system: ZR-75-1-R breast cancer tumor cells (Tamoxifen resistant); test: ZR-75-1-R xenograft tumor model; format: in vivo; settings: oral, daily, 28 days, ZR-75-1-R xenograft in BALB/c nude mice
Procedure: (§1) ZR-75-1-R breast cancer tumor cells (Tamoxifen resistant) were maintained in vitro as monolayer culture in RPMI1640 Medium supplemented with 10% fetal bovine serum and 10 μM tamoxifen at 37° C. in an atmosphere of 5% CO2 in air. The cells growing in an exponential growth phase were harvested and counted for tumor inoculation. BALB/c nude mice were implanted subcutaneously in the right flank with ZR-75-1-R tumor cells (1×10^7) in 100 μl PBS:Matrigel (1:1). When tumors reached approximately 191 mm^3, animals were randomly distributed into treatment groups of 10 animals each and dosed orally, daily with vehicle, freebase Compound (A) at 30 mg/kg, Compound 1 at 80 mg/kg, or compound A at 30 mg/kg in combination with Compound 1 at 80 mg/kg for 28 days. In addition, estradiol benzoate injections were delivered by s.c. (40 μg/20 μL, twice weekly). Tumor volumes were evaluated twice per week to calculate tumor volume over time, and mice were weighed twice per week as a surrogate for signs of toxicity. Tumor growth inhibition (TGI) was calculated using the following equation TGI=(1−(Td−T0)/(Cd−C0))×100%. Td and Cd are the mean tumor volumes of the treated and control animals, and TO and CO are the mean tumor volumes of the treated and control animals at the start of the experiment.

[2] = test system: MCF-7 breast cancer tumor cells; test: MCF-7 xenograft tumor model; format: in vivo; settings: Compound 1 80 mg/kg, oral, daily; MCF-7 xenograft in BALB/c nude mice
Procedure: as §1, with “In addition, estradiol benzoate injections were delivered by s.c. (40 μg/20 μL, twice weekly).” left out, “Tumor growth inhibition (TGI) was calculated using the following equation TGI=(1−(Td−T0)/(Cd−C0))×100%. Td and Cd are the mean tumor volumes of the treated and control animals, and TO and CO are the mean tumor volumes of the treated and control animals at the start of the experiment.” left out
Example 2: MCF-7 breast cancer tumor cells were cultured in vitro in DMEM Medium supplemented with 15% fetal bovine serum at 37° C. in an atmosphere of 5% CO2 in air. The cells growing in an exponential growth phase were harvested and counted for tumor inoculation. […] Tumor volumes were evaluated twice per week to calculate tumor volume over time, and mice were weighed twice per week as a surrogate for signs of toxicity. TGI values were calculated using the equation provide in Example 1.

| SMILES | Tumor growth inhibition (TGI) ([1]; freebase Compound (A) 30 mg/kg) [%] | Tumor growth inhibition (TGI) ([1]; Compound 1 80 mg/kg) [%] | Tumor growth inhibition (TGI) [2] [%] |
| --- | --- | --- | --- |
| C[C@@H]1Cc2c([nH]c3ccccc23)[C@@H](c2c(F)cc(/C=C/C(=O)O)cc2F)N1C12CC(C1)C2 [Compound (A)] | 43.0 |  |  |
| C=CCn1c(=O)c2cnc(Nc3ccc(N4CCN(C)CC4)cc3)nc2n1-c1ccc2c(n1)[C@@](O)(CC)CC2 [Compound 1] |  | 69.9 | 132.6 |
